Measurements reported in ChEMBL document CHEMBL4177649, “On-site reaction for PPARγ modification using a specific bifunctional ligand” (Bioorg Med Chem, 2017).
Each block holds one molecule with its values, some of them ahead of it. Activity calls are given as the source filed them. The calls are words filed in the database; no cut-off is given here.

Assays:
[1] = biological target: T1, Peroxisome proliferator-activated receptor gamma (Homo sapiens) (UniProt P37231); test: Binding affinity to Gal4-fused PPARgamma LBD (unknown origin) expressed in Escherichia coli DH5alpha cell lysates at 4 equiv in presence of ADIBO-fluorescein by Coomassie Brilliant Blue staining method
T1 sequence (whole entry): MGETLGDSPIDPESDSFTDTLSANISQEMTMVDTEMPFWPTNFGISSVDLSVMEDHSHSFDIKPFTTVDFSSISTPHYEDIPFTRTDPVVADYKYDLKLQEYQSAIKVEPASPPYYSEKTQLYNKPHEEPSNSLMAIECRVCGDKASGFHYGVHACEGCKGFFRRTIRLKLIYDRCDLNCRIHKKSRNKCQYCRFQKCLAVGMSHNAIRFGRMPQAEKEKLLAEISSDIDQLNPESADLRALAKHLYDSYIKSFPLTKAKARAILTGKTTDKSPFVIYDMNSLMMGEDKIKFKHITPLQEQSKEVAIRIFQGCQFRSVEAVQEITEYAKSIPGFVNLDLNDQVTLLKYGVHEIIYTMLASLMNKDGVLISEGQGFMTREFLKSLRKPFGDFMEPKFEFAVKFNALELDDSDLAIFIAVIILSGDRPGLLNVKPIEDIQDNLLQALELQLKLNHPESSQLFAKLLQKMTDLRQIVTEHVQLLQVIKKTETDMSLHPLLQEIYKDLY

[2] = biological target: T1, Peroxisome proliferator-activated receptor gamma (Homo sapiens); test: Transactivation at human Gal4-fused PPARgamma LBD expressed in African green monkey COS7 cells by dual luciferase assay; format: cell-based
[3] = biological target: T1, Peroxisome proliferator-activated receptor gamma (Homo sapiens); test: Binding affinity to Gal4-fused human PPARgamma LBD (204 to 477 residues) assessed as covalent modification at 100 uM after 24 hrs by ESI-mass analysis
[4] = biological target: T1, Peroxisome proliferator-activated receptor gamma (Homo sapiens); test: Binding affinity to Gal4-fused human PPARgamma LBD (204 to 477 residues) assessed as labeling efficiency at 100 uM after 12 hrs by ESI-mass analysis
[5] = biological target: T2, Peroxisome proliferator-activated receptor gamma (Mus musculus) (UniProt P37238); test: Binding affinity to Gal4-fused PPARgamma LBD in mouse 3T3-L1 cells assessed in presence of ADIBO-fluorescein; format: cell-based
T2 sequence (whole entry): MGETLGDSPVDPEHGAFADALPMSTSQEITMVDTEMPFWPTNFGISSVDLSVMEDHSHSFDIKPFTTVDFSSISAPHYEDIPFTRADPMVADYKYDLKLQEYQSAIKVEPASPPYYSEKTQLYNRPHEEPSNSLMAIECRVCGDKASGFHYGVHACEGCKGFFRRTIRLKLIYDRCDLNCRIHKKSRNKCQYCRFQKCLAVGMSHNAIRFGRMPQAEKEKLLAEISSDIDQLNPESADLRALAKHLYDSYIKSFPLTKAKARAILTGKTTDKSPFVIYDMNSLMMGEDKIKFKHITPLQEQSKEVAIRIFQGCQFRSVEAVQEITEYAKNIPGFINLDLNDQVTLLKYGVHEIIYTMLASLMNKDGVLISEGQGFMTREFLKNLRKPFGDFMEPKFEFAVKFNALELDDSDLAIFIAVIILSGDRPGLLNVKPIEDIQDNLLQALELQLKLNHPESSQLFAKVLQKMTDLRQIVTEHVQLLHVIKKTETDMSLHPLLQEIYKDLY

[6] = biological target: T1, Peroxisome proliferator-activated receptor gamma (Homo sapiens); test: Binding affinity to human Gal4-fused PPARgamma LBD expressed in African green monkey COS7 cells assessed in presence of ADIBO-fluorescein; format: cell-based
[7] = biological target: T1, Peroxisome proliferator-activated receptor gamma (Homo sapiens); test: Binding affinity to Gal4-fused PPARgamma LBD (unknown origin) expressed in Escherichia coli DH5alpha cell lysates at 4 equiv in presence of ADIBO-fluorescein by SDS-PAGE analysis
[8] = biological target: T1, Peroxisome proliferator-activated receptor gamma (Homo sapiens); test: Binding affinity to Gal4-fused PPARgamma LBD (unknown origin) expressed in Escherichia coli DH5alpha cell lysates at 4 equiv in presence of ADIBO-fluorescein by silver staining method
[9] = biological target: T1, Peroxisome proliferator-activated receptor gamma (Homo sapiens); test: Binding affinity to Gal4-fused PPARgamma LBD (unknown origin) expressed in Escherichia coli DH5alpha cell lysates in presence of ADIBO-fluorescein by SDS-PAGE analysis
[10] = biological target: T1, Peroxisome proliferator-activated receptor gamma (Homo sapiens); test: Binding affinity to Gal4-fused human PPARgamma LBD (204 to 477 residues) assessed as covalent modification at 100 uM after 24 hrs in presence of methyl N-((3E,5E)-16-azido-2-oxohexadeca-3,5-dien-1-yl)-N-tosylglycinate by ESI-mass analysis
[11] = biological target: T1, Peroxisome proliferator-activated receptor gamma (Homo sapiens); test: Binding affinity to Gal4-fused human PPARgamma LBD (204 to 477 residues) assessed as covalent modification at 100 uM after 24 hrs in presence of methyl N-((3E,5E)-2-oxohexadeca-3,5-dien-1-yl)-N-tosylglycinate by ESI-mass analysis

Structure (SMILES): O=C(O)c1cc(NC(=S)NCCCCCC(=O)N2Cc3ccccc3C#Cc3ccccc32)ccc1-c1c2ccc(=O)cc-2oc2cc(O)ccc12
Activity [1]: Active

Structure (SMILES): O=C(CCCCCNC(=O)C(F)(F)F)N1Cc2ccccc2C#Cc2ccccc21
Activity [10]: Active
Activity [11]: inactive

Structure (SMILES): Cc1ccc(S(=O)(=O)N(CC(=O)O)CC(=O)/C=C/C=C/CCCCCCCCCCn2nnc3c2-c2ccccc2CN(C(=O)CCCCCNC(=O)C(F)(F)F)c2ccccc2-3)cc1
Activity [4]: Active

Now from value to molecule:

Activity [2]: Dose-dependent effect
Activity [3]: Active
Activity [4]: Active
Activity [5]: inactive
Activity [6]: inactive
Activity [7]: Active
Activity [8]: Active
Activity [1]: Active
Activity [9]: Dose-dependent effect
Structure (SMILES): COC(=O)CN(CC(=O)/C=C/C=C/CCCCCCCCCCN=[N+]=[N-])S(=O)(=O)c1ccc(C)cc1

Activity [2]: Dose-dependent effect
Structure (SMILES): CCCCCCCCCC/C=C/C=C/C(=O)CN(CC(=O)OC)S(=O)(=O)c1ccc(C)cc1
